Legend:
[1] = tested on: Pyricularia oryzae; experiment: microbe, parasite or virus in culture; type: cell-based; conditions: 168 h, read-out: control compared to the untreated check (radial growth)
[2] = tested on: Rhizoctonia solani; experiment: Rhizoctonia solani (rice sheath blight/potato black scurf) in vitro test, radial growth on potato dextrose agar; type: cell-based; conditions: 168 h, 300 ppm in potato dextrose agar, 25° C., 60% relative humidity, seven days, read-out: control compared to the untreated check (radial growth)
[3] = tested on: Botrytis cinerea; experiment: Botrytis cinerea (gray mold) in vitro test, radial growth on potato dextrose agar; type: cell-based; conditions: 168 h, 300 ppm in potato dextrose agar, 22° C., 90% relative humidity, seven days, read-out: control compared to the untreated check (radial growth)
[4] = tested on: Alternaria solani; experiment: Alternaria solani (early blight of tomato/potato) in vitro test, radial growth on potato dextrose agar; type: cell-based; conditions: 168 h, 300 ppm in potato dextrose agar, 25° C., 60% relative humidity, seven days, read-out: control compared to the untreated check (radial growth)
[5] = tested on: Septoria lycopersici/Corynespora cassicola (CORYCA); experiment: Septoria lycopersici/Corynespora cassicola (CORYCA) (leaf spot of tomato) in vitro test, radial growth on potato dextrose agar; type: cell-based; conditions: 168 h, 300 ppm in potato dextrose agar, 25° C., 70% relative humidity, seven days, read-out: control compared to the untreated check (radial growth)
[6] = tested on: Phakopsora pachyrhizi; experiment: Phakopsora pachyrhizi test in soybean, preventive, in vivo on plants; conditions: in Glycine max, read-out: Efficacy (% control), disease severity compared to the untreated check

CCN(C)C=Nc1cc(C)cc(Nc2ccccc2OC(F)(F)F)c1Cl [Compound 302, N′-(2-chloro-5-methyl-3-((2-(trifluoromethoxy)phenyl)amino)phenyl)-N-ethyl-N-methylformimidamide]
≥ 70%: inhibition of growth at 300 ppm [1] | inhibition of growth at 300 ppm [2] | inhibition of growth at 300 ppm [3] | inhibition of growth at 300 ppm [4] | inhibition of growth at 300 ppm [5]

CCN(C)C=Nc1cc(F)cc(Nc2ccc(Cl)cc2F)c1C [Compound 136, N′-(3-((4-chloro-2-fluorophenyl)amino)-5-fluoro-2-methylphenyl)-N-ethyl-N-methylformimidamide]
≥ 70%: inhibition of growth at 300 ppm [1] | inhibition of growth at 300 ppm [2] | inhibition of growth at 300 ppm [3] | inhibition of growth at 300 ppm [4] | inhibition of growth at 300 ppm [5]

CCN(C)C=Nc1cc(F)cc(Cc2ccccc2F)c1C [Compound 141, N-ethyl-N′-(5-fluoro-3-(2-fluorobenzyl)-2-methylphenyl)-N-methylformimidamide]
≥ 70%: inhibition of growth at 300 ppm [1] | inhibition of growth at 300 ppm [2] | inhibition of growth at 300 ppm [3] | inhibition of growth at 300 ppm [5]

CCN(C)C=Nc1cc(F)cc(Nc2ccccc2OC(F)(F)F)c1C [Compound 303, N-ethyl-N′-(5-fluoro-2-methyl-3-((2-(trifluoromethoxy)phenyl)amino)phenyl)-N-methylformimidamide]
≥ 70%: inhibition of growth at 300 ppm [1] | inhibition of growth at 300 ppm [2] | inhibition of growth at 300 ppm [3] | inhibition of growth at 300 ppm [4] | inhibition of growth at 300 ppm [5]

CCN(C)C=Nc1cc(C)cc(N(C)c2ccccc2)c1Cl [Compound 10, N′-(2-chloro-5-methyl-3-(methyl(phenyl)amino)phenyl)-N-ethyl-N-methylformimidamide]
≥ 70%: inhibition of growth at 300 ppm [1] | inhibition of growth at 300 ppm [3] | inhibition of growth at 300 ppm [4] | inhibition of growth at 300 ppm [5]

CCN(C)C=Nc1cc(F)cc(Nc2cccc(OC)c2)c1C [Compound 30, N-ethyl-N′-(5-fluoro-3-((3-methoxyphenyl)amino)-2-methylphenyl)-N-methylformimidamide]
≥ 70%: inhibition of growth at 300 ppm [1] | inhibition of growth at 300 ppm [2] | inhibition of growth at 300 ppm [4] | inhibition of growth at 300 ppm [5] | pest or weed control at 500 ppm [6]

CCN(C)C=Nc1cc(F)cc(N(C)c2cc(C)cc(F)c2)c1C [Compound 119, N-ethyl-N′-(5-fluoro-3-((3-fluoro-5-methylphenyl)(methyl)amino)-2-methylphenyl)-N-methylformimidamide]
≥ 70%: inhibition of growth at 300 ppm [1] | inhibition of growth at 300 ppm [3] | inhibition of growth at 300 ppm [4] | inhibition of growth at 300 ppm [5] | pest or weed control at 500 ppm [6]

CCN(C)C=Nc1cc(Cl)cc(Nc2cccc(F)c2)c1C [Compound 166, N′-(5-chloro-3-((3-fluorophenyl)amino)-2-methylphenyl)-N-ethyl-N-methylformimidamide]
≥ 70%: inhibition of growth at 300 ppm [1] | inhibition of growth at 300 ppm [3] | inhibition of growth at 300 ppm [4] | inhibition of growth at 300 ppm [5]

CCN(C)C=Nc1cc(F)cc(N(C)c2ccc(Cl)cc2F)c1C [Compound 140, N′-(3-((4-chloro-2-fluorophenyl)(methyl)amino)-5-fluoro-2-methylphenyl)-N-ethyl-N-methylformimidamide]
≥ 70%: inhibition of growth at 300 ppm [1] | inhibition of growth at 300 ppm [2] | inhibition of growth at 300 ppm [3] | inhibition of growth at 300 ppm [4] | inhibition of growth at 300 ppm [5]

CCN(C)C=Nc1cc(C#N)cc(Cc2ccccc2)c1C [Compound 308, N′-(3-benzyl-5-cyano-2-methylphenyl)-N-ethyl-N-methylformimidamide]
≥ 70%: inhibition of growth at 300 ppm [1] | inhibition of growth at 300 ppm [2] | inhibition of growth at 300 ppm [3] | inhibition of growth at 300 ppm [4] | inhibition of growth at 300 ppm [5]

CCN(C)C=Nc1cc(Cl)cc(Cc2ccc(F)c(Cl)c2)c1C [Compound 130, N′-(5-chloro-3-(3-chloro-4-fluorobenzyl)-2-methylphenyl)-N-ethyl-N-methylformimidamide]
≥ 70%: inhibition of growth at 300 ppm [1] | inhibition of growth at 300 ppm [2] | inhibition of growth at 300 ppm [4] | inhibition of growth at 300 ppm [5] | pest or weed control at 500 ppm [6]

CCN(C)C=Nc1cc(C)cc(Nc2ccc(F)c(F)c2)c1Cl [Compound 72, N′-(2-chloro-3-((3,4-difluorophenyl)amino)-5-methylphenyl)-N-ethyl-N-methylformimidamide]
≥ 70%: inhibition of growth at 300 ppm [1] | inhibition of growth at 300 ppm [2] | inhibition of growth at 300 ppm [3] | inhibition of growth at 300 ppm [4] | inhibition of growth at 300 ppm [5]

CCN(C)C=Nc1cc(F)cc(Nc2ccc(F)cc2F)c1C [Compound 76, N′-(3-((2,4-difluorophenyl)amino)-5-fluoro-2-methylphenyl)-N-ethyl-N-methylformimidamide]
≥ 70%: inhibition of growth at 300 ppm [1] | inhibition of growth at 300 ppm [2] | inhibition of growth at 300 ppm [3] | inhibition of growth at 300 ppm [4] | inhibition of growth at 300 ppm [5]

CCN(C)C=Nc1cc(OC)cc(Nc2ccc(F)c(OC)c2)c1C [Compound 276, N-ethyl-N′-(3-((4-fluoro-3-methoxyphenyl)amino)-5-methoxy-2-methylphenyl)-N-methylformimidamide]
≥ 70%: inhibition of growth at 300 ppm [1] | inhibition of growth at 300 ppm [2] | inhibition of growth at 300 ppm [4] | inhibition of growth at 300 ppm [5] | pest or weed control at 500 ppm [6]

CCN(C)C=Nc1cc(C)cc(N(C)c2cccc(C)c2)c1Cl [Compound 43, N′-(2-chloro-5-methyl-3-(methyl(m-tolyl)amino)phenyl)-N-ethyl-N-methylformimidamide]
≥ 70%: inhibition of growth at 300 ppm [3] | inhibition of growth at 300 ppm [4] | inhibition of growth at 300 ppm [5] | pest or weed control at 500 ppm [6]

CCN(C)C=Nc1cc(OC)cc(Nc2ccccc2OC(F)(F)F)c1C [Compound 300, N-ethyl-N′-(5-methoxy-2-methyl-3-((2-(trifluoromethoxy)phenyl)amino)phenyl)-N-methylformimidamide]
≥ 70%: inhibition of growth at 300 ppm [1] | inhibition of growth at 300 ppm [2] | inhibition of growth at 300 ppm [4] | inhibition of growth at 300 ppm [5] | pest or weed control at 500 ppm [6]

From patent US12545639B2, “3-substituted phenylamidine compounds, preparation and use thereof” (PI INDUSTRIES LTD., priority 2019, dated 2026)
